# Measured values reported in US20160289186A1, “FLUOROMETHYL-SUBSTITUTED PYRROLE CA[…]” (Grunenthal GmbH, priority 2013, published 2016).
# Molecular target: T1, Human CaV2.2 channels (Homo sapiens, UniProt Q00975)
# T1 construct: expressed in transfected cells; host or cells: HEK293
# Assay: Fluorescent (FLIPR) assay for CaV2.2 channels using potassium depolarization to induce channel opening
# Type: cell-based
# Conditions: 3 μM compound, 30 mM KCl assay buffer (inactivated channel state), HEK293 cells stably expressing human CaV2.2; for inhibition at 3 µM: read-out: Activity Category: %-Inhib (CaV2.2) @3 μM @30 mM KCl
# Method in brief: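 HEK293 cells stably co-expressing human CaV2.2 with α2δ and β subunits plus Kir2.3, Fluo-4 loaded; compounds preincubated 15 min at 25 °C in 1 mM or 30 mM KCl buffer (inactivated state), pH 7.4. Depolarized by KCl addition; baseline-normalized peak fluorescence (ex 480/em 535 nm) gave inhibition.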
# T1 sequence (Q00975 whole entry): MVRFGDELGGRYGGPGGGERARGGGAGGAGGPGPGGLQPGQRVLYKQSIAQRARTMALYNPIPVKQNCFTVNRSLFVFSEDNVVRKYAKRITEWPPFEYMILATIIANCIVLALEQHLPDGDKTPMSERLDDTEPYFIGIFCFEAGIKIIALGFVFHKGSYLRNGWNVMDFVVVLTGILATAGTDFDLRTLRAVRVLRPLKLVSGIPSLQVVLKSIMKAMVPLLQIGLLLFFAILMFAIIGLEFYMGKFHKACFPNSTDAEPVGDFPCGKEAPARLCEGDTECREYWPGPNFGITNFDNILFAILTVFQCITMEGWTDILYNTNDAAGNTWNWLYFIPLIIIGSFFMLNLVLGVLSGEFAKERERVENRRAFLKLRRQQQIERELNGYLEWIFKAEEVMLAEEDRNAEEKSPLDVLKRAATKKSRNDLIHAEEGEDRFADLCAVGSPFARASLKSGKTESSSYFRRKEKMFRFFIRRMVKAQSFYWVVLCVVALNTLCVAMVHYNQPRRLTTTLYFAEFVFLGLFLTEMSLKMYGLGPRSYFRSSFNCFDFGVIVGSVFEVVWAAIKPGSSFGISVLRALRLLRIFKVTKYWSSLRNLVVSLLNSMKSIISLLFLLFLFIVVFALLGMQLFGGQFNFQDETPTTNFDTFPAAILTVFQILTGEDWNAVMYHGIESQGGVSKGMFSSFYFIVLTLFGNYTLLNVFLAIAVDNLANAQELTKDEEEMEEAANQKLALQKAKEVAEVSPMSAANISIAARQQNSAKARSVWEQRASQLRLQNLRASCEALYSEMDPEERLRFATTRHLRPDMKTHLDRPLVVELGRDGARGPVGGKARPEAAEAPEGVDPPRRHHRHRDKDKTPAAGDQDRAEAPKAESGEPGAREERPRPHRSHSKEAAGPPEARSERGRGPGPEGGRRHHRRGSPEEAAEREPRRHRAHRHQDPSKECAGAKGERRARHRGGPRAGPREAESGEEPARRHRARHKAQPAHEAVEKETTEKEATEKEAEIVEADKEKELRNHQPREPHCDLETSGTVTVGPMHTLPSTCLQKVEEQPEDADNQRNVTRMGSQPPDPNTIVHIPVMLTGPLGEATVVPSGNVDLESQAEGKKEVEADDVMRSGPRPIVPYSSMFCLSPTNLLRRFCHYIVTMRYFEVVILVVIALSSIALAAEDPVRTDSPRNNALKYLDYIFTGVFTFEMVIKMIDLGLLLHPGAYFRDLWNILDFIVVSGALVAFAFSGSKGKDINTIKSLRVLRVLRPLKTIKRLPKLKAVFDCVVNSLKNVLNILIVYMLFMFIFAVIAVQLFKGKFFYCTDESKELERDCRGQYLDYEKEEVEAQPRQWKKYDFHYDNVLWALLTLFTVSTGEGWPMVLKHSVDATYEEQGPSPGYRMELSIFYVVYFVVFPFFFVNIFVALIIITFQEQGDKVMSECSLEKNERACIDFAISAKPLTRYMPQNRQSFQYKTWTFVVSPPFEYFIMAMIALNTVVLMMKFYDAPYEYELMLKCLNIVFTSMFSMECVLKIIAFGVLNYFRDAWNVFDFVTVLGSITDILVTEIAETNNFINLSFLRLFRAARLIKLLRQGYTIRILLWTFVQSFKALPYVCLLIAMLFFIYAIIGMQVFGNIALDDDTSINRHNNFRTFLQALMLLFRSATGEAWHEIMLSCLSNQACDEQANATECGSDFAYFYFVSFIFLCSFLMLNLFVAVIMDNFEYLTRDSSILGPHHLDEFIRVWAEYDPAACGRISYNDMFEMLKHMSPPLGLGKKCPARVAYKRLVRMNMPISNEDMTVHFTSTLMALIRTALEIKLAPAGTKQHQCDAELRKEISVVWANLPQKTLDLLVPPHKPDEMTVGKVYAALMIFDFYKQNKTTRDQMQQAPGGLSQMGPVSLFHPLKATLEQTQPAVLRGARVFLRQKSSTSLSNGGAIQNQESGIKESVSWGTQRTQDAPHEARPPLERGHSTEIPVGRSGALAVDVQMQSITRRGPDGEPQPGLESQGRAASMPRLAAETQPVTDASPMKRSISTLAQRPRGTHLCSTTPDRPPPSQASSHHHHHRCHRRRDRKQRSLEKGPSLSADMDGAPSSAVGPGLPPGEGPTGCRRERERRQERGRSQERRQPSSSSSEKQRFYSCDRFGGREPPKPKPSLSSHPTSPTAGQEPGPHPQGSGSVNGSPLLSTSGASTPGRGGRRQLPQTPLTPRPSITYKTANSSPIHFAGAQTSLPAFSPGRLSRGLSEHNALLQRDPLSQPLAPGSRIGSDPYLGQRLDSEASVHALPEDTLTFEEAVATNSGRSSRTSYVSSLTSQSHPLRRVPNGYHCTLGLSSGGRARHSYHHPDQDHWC
# T1 sequence (P54284 whole entry, further chain): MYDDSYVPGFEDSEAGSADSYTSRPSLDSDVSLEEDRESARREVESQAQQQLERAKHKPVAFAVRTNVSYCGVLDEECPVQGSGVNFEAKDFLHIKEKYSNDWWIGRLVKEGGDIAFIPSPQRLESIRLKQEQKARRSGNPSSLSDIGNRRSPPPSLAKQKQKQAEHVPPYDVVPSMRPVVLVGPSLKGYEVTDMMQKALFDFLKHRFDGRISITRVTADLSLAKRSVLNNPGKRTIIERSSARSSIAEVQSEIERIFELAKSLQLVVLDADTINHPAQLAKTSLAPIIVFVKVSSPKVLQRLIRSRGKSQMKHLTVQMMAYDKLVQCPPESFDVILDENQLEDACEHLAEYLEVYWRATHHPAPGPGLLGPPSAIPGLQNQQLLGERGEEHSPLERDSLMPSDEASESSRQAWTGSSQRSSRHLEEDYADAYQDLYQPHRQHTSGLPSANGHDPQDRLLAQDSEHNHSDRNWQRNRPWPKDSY
# T1 sequence (P54289 25-1103, further chain): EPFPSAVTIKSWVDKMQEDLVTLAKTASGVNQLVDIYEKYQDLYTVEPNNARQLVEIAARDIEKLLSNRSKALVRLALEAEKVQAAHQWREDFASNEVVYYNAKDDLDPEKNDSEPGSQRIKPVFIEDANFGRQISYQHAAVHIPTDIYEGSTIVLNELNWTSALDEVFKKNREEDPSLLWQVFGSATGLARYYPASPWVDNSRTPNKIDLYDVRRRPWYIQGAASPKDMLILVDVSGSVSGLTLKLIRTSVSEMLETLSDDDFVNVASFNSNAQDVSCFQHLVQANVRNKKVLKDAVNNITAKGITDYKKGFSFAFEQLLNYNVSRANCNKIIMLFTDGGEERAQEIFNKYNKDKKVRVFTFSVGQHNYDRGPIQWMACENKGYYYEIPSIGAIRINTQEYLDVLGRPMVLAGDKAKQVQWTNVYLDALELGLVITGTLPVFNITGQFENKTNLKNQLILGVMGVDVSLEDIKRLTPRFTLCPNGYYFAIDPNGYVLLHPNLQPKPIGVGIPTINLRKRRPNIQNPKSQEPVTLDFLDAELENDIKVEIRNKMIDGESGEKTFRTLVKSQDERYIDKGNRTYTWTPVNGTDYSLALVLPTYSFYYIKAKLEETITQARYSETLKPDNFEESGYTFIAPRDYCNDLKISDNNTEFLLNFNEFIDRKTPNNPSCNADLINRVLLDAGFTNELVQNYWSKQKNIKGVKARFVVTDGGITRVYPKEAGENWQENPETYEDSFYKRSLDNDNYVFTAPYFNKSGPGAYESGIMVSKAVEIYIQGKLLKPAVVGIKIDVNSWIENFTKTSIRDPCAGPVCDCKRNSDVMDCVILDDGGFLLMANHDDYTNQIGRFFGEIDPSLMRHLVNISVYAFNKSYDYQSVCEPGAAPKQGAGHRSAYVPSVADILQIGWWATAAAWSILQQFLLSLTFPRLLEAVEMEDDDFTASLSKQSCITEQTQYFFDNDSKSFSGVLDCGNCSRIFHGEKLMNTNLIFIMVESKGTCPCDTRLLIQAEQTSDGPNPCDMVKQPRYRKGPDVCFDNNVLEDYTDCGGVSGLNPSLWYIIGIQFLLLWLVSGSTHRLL
Structure (SMILES),inhibition at 3 µM [%],Activity Category: %-Inhib (CaV2.2) @3 μM @30 mM KCl
"Cc1c(-c2ccc(Cl)cc2)c(C(=O)N(C)CC(C)(C)C(N)=O)n(CC(C)C)c1C(F)(F)F [Example 052, N-(2-Carbamoyl-2-methyl-propyl)-3-(4-chlorophenyl)-N,4-dimethyl-1-(2-methyl-propyl)-5-(trifluoromethyl)-1H-pyrrole-2-carboxylic acid amide]",75 to 95,–
"CC(C)Cn1c(C(F)(F)F)cc(-c2ccc(F)cc2)c1C(=O)N(C)CC(C)(C)C [Example 053, N-(2,2-Dimethyl-propyl)-3-(4-fluorophenyl)-N-methyl-1-(2-methyl-propyl)-5-(trifluoromethyl)-1H-pyrrole-2-carboxylic acid amide]",40 to 75,–
"CC(C)Cn1c(C(F)(F)F)cc(-c2ccc(F)cc2)c1C(=O)N(C)CC(C)(C)CN1CCOCC1 [Example 054, N-(2,2-Dimethyl-3-morpholin-4-yl-propyl)-3-(4-fluorophenyl)-N-methyl-1-(2-methyl-propyl)-5-(trifluoromethyl)-1H-pyrrole-2-carboxylic acid amide]",75 to 95,–
"Cc1c(-c2ccc(Cl)cc2)c(C(=O)N(C)CC(C)(C)CO)n(CC(C)C)c1C(F)(F)F [Example 055, 3-(4-Chlorophenyl)-N-(3-hydroxy-2,2-dimethyl-propyl)-N,4-dimethyl-1-(2-methyl-propyl)-5-(trifluoromethyl)-1H-pyrrole-2-carboxylic acid amide]",> 95,–
"CC(C)Cn1c(C(F)(F)F)cc(-c2ccc(F)cc2)c1C(=O)N(C)CC(C)(C)CO [Example 056, 3-(4-Fluorophenyl)-N-(3-hydroxy-2,2-dimethyl-propyl)-N-methyl-1-(2-methyl-propyl)-5-(trifluoromethyl)-1H-pyrrole-2-carboxylic acid amide]",75 to 95,–
"Cc1cc(CN(C)C(=O)c2c(-c3ccc(Cl)cc3)c(C)c(C(F)(F)F)n2CC(C)C)no1 [Example 057, 3-(4-Chlorophenyl)-N,4-dimethyl-N-[(5-methyl-isoxazol-3-yl)-methyl]-1-(2-methyl-propyl)-5-(trifluoromethyl)-1H-pyrrole-2-carboxylic acid amide]",> 95,–
"CC(C)Cn1c(C(F)(F)F)cc(-c2ccc(F)cc2)c1C(=O)N(C)CC1CCOC1 (centres unmarked) [Example 058, 3-(4-Fluorophenyl)-N-methyl-1-(2-methyl-propyl)-N-(tetrahydro-furan-3-yl-methyl)-5-(trifluoromethyl)-1H-pyrrole-2-carboxylic acid amide]",> 95,–
"Cc1cnc(CN(C)C(=O)c2c(-c3ccc(Cl)cc3)c(C)c(C(F)(F)F)n2CC(C)C)cn1 [Example 059, 3-(4-Chlorophenyl)-N,4-dimethyl-1-(2-methyl-propyl)-N-[(5-methyl-pyrazin-2-yl)-methyl]-5-(trifluoromethyl)-1H-pyrrole-2-carboxylic acid amide]",> 95,–
CC(C)Cn1c(C(F)(F)F)cc(-c2ccc(F)cc2)c1C(=O)N(C)Cc1cnc(N(C)C)nc1 [Example 060],–,A (%-Inhibition >95%)
"Cc1c(-c2ccc(Cl)cc2)c(C(=O)N(C)CCS(C)(=O)=O)n(CC(C)C)c1C(F)(F)F [Example 061, 3-(4-Chlorophenyl)-N,4-dimethyl-1-(2-methyl-propyl)-N-(2-methylsulfonyl-ethyl)-5-(trifluoromethyl)-1H-pyrrole-2-carboxylic acid amide]",> 95,–
"Cc1noc(C2CCN(C(=O)c3c(-c4ccc(Cl)cc4)c(C)c(C(F)(F)F)n3CC(C)C)CC2)n1 [Example 062, [3-(4-Chlorophenyl)-4-methyl-1-(2-methyl-propyl)-5-(trifluoromethyl)-1H-pyrrol-2-yl]-[4-(3-methyl-[1,2,4]oxadiazol-5-yl)-piperidin-1-yl]-methanone]",75 to 95,–
"CC(C)Cn1c(C(F)(F)F)cc(-c2ccc(F)cc2)c1C(=O)N1CCNC(=O)C1 [Example 063, 4-[3-(4-Fluorophenyl)-1-(2-methyl-propyl)-5-(trifluoromethyl)-1H-pyrrole-2-carbonyl]-piperazin-2-one]",40 to 75,–
"Cc1c(-c2ccc(Cl)cc2)c(C(=O)N2CCOC(C)(C)C2)n(CC(C)C)c1C(F)(F)F [Example 064, [3-(4-Chlorophenyl)-4-methyl-1-(2-methyl-propyl)-5-(trifluoromethyl)-1H-pyrrol-2-yl]-(2,2-dimethyl-morpholin-4-yl)-methanone]",75 to 95,–
"CC(C)Cn1c(C(F)(F)F)cc(-c2ccc(F)cc2)c1C(=O)N1CCOCC1 [Example 065, [3-(4-Fluorophenyl)-1-(2-methyl-propyl)-5-(trifluoromethyl)-1H-pyrrol-2-yl]-morpholin-4-yl-methanone]",75 to 95,–
"CC(C)Cn1c(C(F)(F)F)cc(-c2ccc(F)cc2)c1C(=O)NC1CC1 [Example 066, N-Cyclopropyl-3-(4-fluorophenyl)-1-(2-methyl-propyl)-5-(trifluoromethyl)-1H-pyrrole-2-carboxylic acid amide]",75 to 95,–
"Cc1c(-c2ccc(Cl)cc2)c(C(=O)N(C)CC(C)(C)C#N)n(CC(C)C)c1C(F)(F)F [Example 067, 3-(4-Chlorophenyl)-N-(2-cyano-2-methyl-propyl)-N,4-dimethyl-1-(2-methyl-propyl)-5-(trifluoromethyl)-1H-pyrrole-2-carboxylic acid amide]",40 to 75,–
"Cc1c(-c2ccc(Cl)cc2)c(C(=O)N(C)CCS(C)(=O)=O)n(CC2(C)CC2)c1C(F)(F)F [Example 068, 3-(4-Chlorophenyl)-N,4-dimethyl-1-[(1-methyl-cyclopropyl)-methyl]-N-(2-methylsulfonyl-ethyl)-5-(trifluoromethyl)-1H-pyrrole-2-carboxylic acid amide]",> 95,–
"CN(Cc1cnc(N(C)C)nc1)C(=O)c1c(-c2ccc(F)cc2)cc(C(F)(F)F)n1CC1CCCO1 (centres unmarked) [Example 069, N-[(2-Dimethylamino-pyrimidin-5-yl)-methyl]-3-(4-fluorophenyl)-N-methyl-1-(tetrahydro-furan-2-yl-methyl)-5-(trifluoromethyl)-1H-pyrrole-2-carboxylic acid amide]",75 to 95,–
"CN(C(=O)c1c(-c2ccc(F)cc2)cc(C(F)(F)F)n1CC1CCCO1)C1CCOCC1 (centres unmarked) [Example 070, 3-(4-Fluorophenyl)-N-methyl-1-(tetrahydro-furan-2-yl-methyl)-N-tetrahydro-pyran-4-yl-5-(trifluoromethyl)-1H-pyrrole-2-carboxylic acid amide]",75 to 95,–
"CN(C(=O)c1c(-c2ccc(F)cc2)cc(C(F)(F)F)n1CC1CCCO1)C1CCS(=O)(=O)C1 (centres unmarked) [Example 071, N-(1,1-Dioxo-thiolan-3-yl)-3-(4-fluorophenyl)-N-methyl-1-(tetrahydro-furan-2-yl-methyl)-5-(trifluoromethyl)-1H-pyrrole-2-carboxylic acid amide]",40 to 75,–
"CN(CC(C)(C)C)C(=O)c1c(-c2ccc(F)cc2)cc(C(F)(F)F)n1CC1CCCO1 (centres unmarked) [Example 073, N-(2,2-Dimethyl-propyl)-3-(4-fluorophenyl)-N-methyl-1-(tetrahydro-furan-2-yl-methyl)-5-(trifluoromethyl)-1H-pyrrole-2-carboxylic acid amide]",75 to 95,–
"CN(CC(C)(C)CO)C(=O)c1c(-c2ccc(F)cc2)cc(C(F)(F)F)n1CC1CCCO1 (centres unmarked) [Example 074, 3-(4-Fluorophenyl)-N-(3-hydroxy-2,2-dimethyl-propyl)-N-methyl-1-(tetrahydro-furan-2-yl-methyl)-5-(trifluoromethyl)-1H-pyrrole-2-carboxylic acid amide]",75 to 95,–
"Cc1cc(CN(C)C(=O)c2c(-c3ccc(F)cc3)cc(C(F)(F)F)n2CC2CCCO2)no1 (centres unmarked) [Example 075, 3-(4-Fluorophenyl)-N-methyl-N-[(5-methyl-isoxazol-3-yl)-methyl]-1-(tetrahydro-furan-2-yl-methyl)-5-(trifluoromethyl)-1H-pyrrole-2-carboxylic acid amide]",75 to 95,–
"Cc1cnc(CN(C)C(=O)c2c(-c3ccc(F)cc3)cc(C(F)(F)F)n2CC2CCCO2)cn1 (centres unmarked) [Example 077, 3-(4-Fluorophenyl)-N-methyl-N-[(5-methyl-pyrazin-2-yl)-methyl]-1-(tetrahydro-furan-2-yl-methyl)-5-(trifluoromethyl)-1H-pyrrole-2-carboxylic acid amide]",75 to 95,–
"CN(CCS(C)(=O)=O)C(=O)c1c(-c2ccc(F)cc2)cc(C(F)(F)F)n1CC1CCCO1 (centres unmarked) [Example 078, 3-(4-Fluorophenyl)-N-methyl-N-(2-methylsulfonyl-ethyl)-1-(tetrahydro-furan-2-yl-methyl)-5-(trifluoromethyl)-1H-pyrrole-2-carboxylic acid amide]",40 to 75,–
"O=C1CN(C(=O)c2c(-c3ccc(F)cc3)cc(C(F)(F)F)n2CC2CCCO2)CCN1 (centres unmarked) [Example 079, 4-[3-(4-Fluorophenyl)-1-(tetrahydro-furan-2-yl-methyl)-5-(trifluoromethyl)-1H-pyrrole-2-carbonyl]-piperazin-2-one]",40 to 75,–
"CC1(C)CN(C(=O)c2c(-c3ccc(F)cc3)cc(C(F)(F)F)n2CC2CCCO2)CCO1 (centres unmarked) [Example 080, (2,2-Dimethyl-morpholin-4-yl)-[3-(4-fluorophenyl)-1-(tetrahydro-furan-2-yl-methyl)-5-(trifluoromethyl)-1H-pyrrol-2-yl]-methanone]",75 to 95,–
"O=C(c1c(-c2ccc(F)cc2)cc(C(F)(F)F)n1CC1CCCO1)N1CCOCC1 (centres unmarked) [Example 081, [3-(4-Fluorophenyl)-1-(tetrahydro-furan-2-yl-methyl)-5-(trifluoromethyl)-1H-pyrrol-2-yl]-morpholin-4-yl-methanone]",40 to 75,–
"O=C(NC1CC1)c1c(-c2ccc(F)cc2)cc(C(F)(F)F)n1CC1CCCO1 (centres unmarked) [Example 082, N-Cyclopropyl-3-(4-fluorophenyl)-1-(tetrahydro-furan-2-yl-methyl)-5-(trifluoromethyl)-1H-pyrrole-2-carboxylic acid amide]",40 to 75,–
